Source: patent publication US8329681B2, “Methods and compositions for the efficient delivery of therapeutic agents to cells and animals” (University of Massachusetts, priority 2005, dated 2012)

What was measured:
[1] = Tissue distribution of Cy3-labeled siRNA by fluorescence microscopy; format: in vivo, BALB/c mice; conditions: 24 h after injection
Description: Freshly excised tissues were frozen in liquid nitrogen and mounted for crytostat sectioning. Sections of 5 μm were fixed with in 100% acetone at 4° C. for 10 min, air-dried and mounted in Vectashild with DAPI (Vector Laboratories, Inc. Burlingame, Calif.). Slides were viewed and recorded under Leica confocal microscope.
Male BALB/c mice, 6-8 weeks of age and weighting 20-22 g, were purchased form the Jackson Laboratory (Bar Harbor, Me.). Synthetic siRNA were delivered in vivo using following method. For each mice 25 μg of siRNA in 100 μl of HEPES Buffered Saline (20 mM HEPES, 150 mM NaCl, pH 7.4) was transferred into a sterile tube. In a separate sterile tube 125 μg of liposome was mixed with 200 μl HEPES Buffered Saline. The siRNA solution was transferred to the tube containing liposome solution and then incubated at room temperature for 20 minutes. 200 μl of the complexes was injected via the tail vein, using a 1-ml syringe and 27-gauge needle. The injection was repeated 4 and 8 h later. Control mice were injected with an equal volume of liposome. At 24 h after the last injection, the mice were sacrificed and tissues were harvested for further analysis. […]
The tissue distribution patterns of siRNA delivered in BALB/c mice using DOTAP-Chol were assessed by fluorescence microscopy.

FL83B cells = assay: Cell Titer 96 AQueous One Solution (MTS) cytotoxicity assay; format: cell-based, rat; conditions: liposomal formulation alone or in combination with DOPE and DOPC as co-lipid
Description: Alternatively, the cytotoxicity of the lipids was measured using the Cell Titer 96® AQueous One Solution Cell Proliferation Assay. The Cell Titer 96® AQueous One Solution Reagent contains a tetrazolium compound [3-(4,5-dimethylthiazol-2-yl)-5-(3-carboxymethoxyphenyl)-2(4-sulfophenyl)-2H-tetrazolium, inner salt; MTS^17] and an electron coupling reagent (phenazine ethosulfate; PES). The cytotoxicity assay was performed in 96 well plates by maintaining the ratio of number of cells to amount of cationic lipid constant as in transfection experiments. MTS was added 24 hours after transfection. Cell Titer 96® AQueous One Solution Reagent (20 ul) was pipetted into each well of the 96-well assay plate containing the samples in 100 μl of culture medium. In case of HeLa cells the plates were incubated for 2 hours, whereas for FL83B cells, plates were incubated for 4 hours at 37° C. in a humidified, 5% CO2 atmosphere. Absorbance was then recorded at 490 nm.
In a second experiment, FL83B and HeLa cells were plated on 96 well plate 18 hours prior to transfection. Then, liposome was added to each well and incubated for 24 hours. Thereafter, Cell Titer 96® AQueous One Solution Reagent was added and incubated for 4 hours. The MTS tetrazolium compound (Owen's reagent) is bioreduced by viable cells into a colored formazan product that is soluble in tissue culture […]. The absorbance of the formazan was measured at 490 nm with a 96 well plate reader.

CDK9 expression = assay: Liposome-mediated CDK9 siRNA gene knock-down in FL83B cells, real-time RT-PCR; format: cell-based, rat; conditions: CDK9 siRNA transfected with liposome
Description: Total RNA was extracted from tissues or cultured cells using Trizol (Invitrogen, Carlsbad, Calif.), and real-time RT-PCR for CDK9 and GAPDH mRNA quantification was carried out using 200 ng of total RNA and the QuantiTect SYBR Green RT-PCR Kit (Qiagen, Valencia, Calif.) according to the manufacturer's instructions. The ratio of CDK9 and GAPDH mRNA was calculated and expressed as a group average relative to the control group. The specific probe for detection of CDK9 mRNA levels was designed to the following regions of the CDK9 mRNA ORF, the forward primer 5′ TCGGACCAA AGCCTCACCGTATAA 3′, the reverse primer 5′ […] TTG 3′
FL83B were cultured in F-12K medium (ATCC, Manassas, Va.) with 10% fetal bovine serum at 37° C. in 5% CO2. FL83B were plated on 6-well plates at 70% confluency 24 hours before transfection. […] Gene silencing was monitored by Real-time RT-PCR.
The complexes of CDK9 siRNA (2 μg) and DOATP-Chol (10 μg) or DMTAP-Chol (10 μg) or Transfast-Chol […] were added to Opti-MEM I medium and cells were incubated in the mixture for 6 hr. […] RNA was extracted from cells using Trizol Reagent and real-time RT-PCR for CDK9 and GAPDH mRNA quantification was carried out using 200 ng of total RNA and the QuantiTect SYBR Green RT-PCR Kit. The ratio of CDK9 and GAPDH mRNA was calculated and expressed as a group average relative to the control group. […]

CCCCCCCCC=CCCCCCCCC(=O)OC(COC(=O)CCC(=O)OC1CCC2(C)C(=CCC3C2CCC2(C)C(C(C)CCCC(C)C)CCC32)C1)C[N+](C)(C)C.[I-] (stereo not drawn) [Lipid 8, N,N,N-Trimethyl-N-[2-(9(Z)-octadecanoyloxy),3-succinyloxy(4-cholesteryloxy)-propyl]ammonium iodide]
tissues with the highest fluorescent intensity of delivered Cy3-labeled siRNA [1]: the spleen, the lung and the liver | cytotoxicity as compared to a control (FL83B cells): non-toxic | knockdown of CDK9 expression (CDK9 expression): 67%
